Experimental findings from ChEMBL document CHEMBL1144090, “Antinociceptive activity of niga-ichigoside F1 from Rubus imperialis” (1999) are described below.

Structures are written as SMILES. The source made the active and inactive calls. The rule behind the calls is not given here.

Assay [1] has as its system Mus musculus. Description: Antinociceptive activity in ip dosed Swiss mouse assessed as reduction of acetic acid-induced abdominal constructions administered 30 mins before acetic acid challenge measured for 20 mins. Type of assay: functional. The conditions noted are these: Abdomen, read-out: ID50 (the source's name).
For assay [2], the system named is Mus musculus. As to the kind of experiment: Antinociceptive activity in Swiss mouse assessed as reduction of acetic acid-induced abdominal constructions at 1 to 10 mg/kg, ip administered 30 mins before acetic acid challenge measured after 20 mins relative to control. It is filed as functional, Abdomen. Particulars: dose mg/kg 1-10; route intraperitoneal.
Assay [3] deals with Mus musculus. Description: Antinociceptive activity in ip dosed Swiss mouse assessed as reduction of formalin-induced neurogenic pain administered 60 mins before formalin challenge measured during 0 to 5 mins. Type of assay: functional.
The test system of assay [4] is Mus musculus. As to the kind of experiment: Antinociceptive activity in ip dosed Swiss mouse assessed as reduction of formalin-induced inflammatory pain administered 60 mins before formalin challenge measured during 15 to 30 mins. It is filed as functional. The conditions noted are these: read-out: ID50 (the source's name).
For assay [5], the system named is Mus musculus. Description: Antinociceptive activity in Swiss mouse assessed as reduction of formalin-induced inflammatory pain at 1 to 10 mg/kg, ip administered 60 mins before formalin challenge measured during 15 to 30 mins relative to control. It is filed as functional. Particulars: route intraperitoneal.
Assay [6] concerns Mus musculus. As to the kind of experiment: Antinociceptive activity in Swiss mouse assessed as reduction of formalin-induced neurogenic pain at 1 to 10 mg/kg, ip administered 60 mins before formalin challenge measured during 0 to 5 mins relative to control. Type of assay: functional. Particulars: route intraperitoneal.

As for `CC(=O)Nc1ccc(O)cc1` [ACETAMINOPHEN], the values for the ED50 in assay [1] and in assay [4] were 125 µmol/kg and 120 µmol/kg, respectively. The entries for the “inhibition (INH)” value in assay [2] and in assay [5] were 88% and 85%, respectively. The outcome in assay [3] was inactive.
For the compound `C[C@@H]1CC[C@]2(C(=O)O[C@@H]3O[C@H](CO)[C@@H](O)[C@H](O)[C@H]3O)CC[C@]3(C)C(=CC[C@@H]4[C@@]5(C)C[C@@H](O)[C@H](O)[C@@](C)(CO)[C@@H]5CC[C@]43C)[C@@H]2[C@]1(C)O` [NIGAICHIGOSIDE F1], the ED50 amounted to 4.6 µmol/kg in assay [1], 3.9 µmol/kg in assay [3] (read-out: ID50 (the source's name)) and 4.1 µmol/kg in assay [4]. The “inhibition (INH)” value in assay [2] came out at 67.6%; in assay [6], 70.4%; in assay [5], 94%.
In the case of `CC(=O)Oc1ccccc1C(=O)O` [ASPIRIN], the ED50 in assay [1] stood at 133 µmol/kg; in assay [4] it was 123 µmol/kg. In addition, the “inhibition (INH)” value in assay [2] stood at 83%; in assay [5], 88%. In addition, the outcome in assay [3] was inactive.
